Measured values taken from publication PMC10986609, “Identification of fungal natural products with potent inhibition in Toxoplasma gondii” (Microbiology Spectrum, 2024).
Read-outs that look alike come from different tables or passages of the source. Non-standard residues stand in square brackets, D forms with d. Residues, ends and D or L forms follow the SMILES beside them. *: point of attachment. X1 = CC(C)C[C@@H](CN1CCC[N+]2=C1CCC2)N*; X2 = CC(C)C[C@@H](C[N+]1=C2CCCN2CCC1)N*; Pip = O=C(O)[C@@H]1CCCCN1; Iva = CC[C@](C)(N)C(=O)O; Aib = CC(C)(N)C(=O)O; βAla = NCCC(=O)O

What was measured:
[1] = system: human foreskin fibroblasts (HFFs); test: HFF cytotoxicity dose response (cell counting kit-8); details: for IC50: read-out: HFF IC50 (mean ± SEM); for toxicity to HFFs: highest concentrations tested (20 µM)
Experimental: (§1) Samples were further diluted by adding an equal volume of media containing 700 parasites. DMSO and […] of KAE609 were used as negative and positive controls, respectively. Assays were performed with a total of three technical replicates and two biological replicates. After incubation for 48 hours, 50 µL of media was removed, and plates were subjected to freezing and thawing. Following this, 10 µL of passive lysis buffer was added and plates were incubated for 15 min at room temperature. Finally, 30 µL of luciferase reagent was added, and the luminescence was measured immediately using a PHERAstar FSX. In parallel, cytotoxicity dose response was performed in the same fashion without the addition of parasites. Cell counting kit-8 reagent (GlpBio; Cat # GK10001) was added at a 1:10 dilution and incubated at 37°C, 5% CO2 for 1 hour. The absorbance was then measured at 450 nm using a PHERAstar FSX. The data management system CDD vault was used for curve fitting and IC50 determination.

[2] = system: Toxoplasma gondii tachyzoites (RH88); test: microbe, parasite or virus in culture; details: read-out: TgRH88 IC50 (mean ± SEM)
Experimental: For the initial fixed concentration screening and IC50 determination in T. gondii, we utilized a luciferase expressing RH88 strain to quantify the number of live, actively replicating parasites. To construct this strain, the Fluc and DHFR selection markers had been integrated into the UPRT locus through CRISPR/Cas9, rendering the strain pyrimethamine-resistant ([6]). Screening was performed using a pure compound library provided by the University of Oklahoma Natural Products Discovery Group, containing 683 compounds derived primarily from fungal secondary metabolites. For purposes of testing, HFFs were grown in 96-well microtiter plates in preparation. The media we used to grow cells was referred to a D10 media that was composed of Dulbecco's Modified Eagle Medium (Thermo Fisher; Cat # 11995073), 10% Fetal Bovine Serum (Sigma-Aldrich; Cat # 12306C), 1 × non-essential amino acids (100 ×; Thermo Fisher; Cat # 11140050), HEPES buffer (1M; Fisher Scientific; Cat # SH3023701) at 0.4M, and 10 mg/mL of gentamicin (Fisher Scientific; Cat # 15710072). Compounds were then diluted to 10 µM in 100 µL of fresh D10 media. Each plate utilized artemisinin and DMSO vehicle controls. To each well, 2,500 parasites per 100 µL of D10 media were added. Three technical replicates were then performed. After 48 hours, 160 µL of the D10 media was removed, and plates were subjected to freezing then thawing. Following this, 10 µL of the passive lysis buffer (Promega; Cat# E1910) was added and incubated at room temperature for 15 min. Finally, 100 µL of luciferase assay reagent (Promega; Cat# E1501) was added to each well, and luminescence was measured using a PHERAstar FSX plate reader (BMG Labtech, Germany).
as §1, with “For IC50 and cytotoxicity determination, we used 384 plates with confluent HFF cells. Compounds were serially diluted 3-fold with a starting concentration of 20 µM. Samples” for “Samples”

[3] = system: Plasmodium falciparum (Dd2); details: read-out: PfDd2 IC50, cited from earlier work
[4] = in vitro; details: human
Experimental: as §1

[5] = mean of duplicate or triplicate experiments
[6] = cytotoxicity, no parasites, 48 hours, CCK-8
[7] = luciferase expressing RH88 in HFF, 48 hours

Compound | IC50 ([1]; Homo sapiens, Fibroblast, 48 h) [nM] | IC50 ([2]; Toxoplasma gondii, 48 h) [nM] | IC50 [1, 6] [nM] | IC50 [2, 7] [nM] | other results
C[C@H]1Cc2c([nH]c3cc(Cl)c(F)cc23)[C@@]2(N1)C(=O)Nc1ccc(Cl)cc12 [KAE609, reference compound] | > 20000 | 440 ± 34.8 | – | – | –
CN(C)c1ccc2nc3ccc(=[N+](C)C)cc-3sc2c1 [Methylene blue, reference compound] | > 20000 | 258 ± 0.95 | – | – | –
CCC(=O)CCCCCC1NC(=O)C2CCCCN2C(=O)C(C(C)C)NC(=O)C(Cc2cn(OC)c3ccccc23)NC1=O (stereo not shown) [compound 120251, Apicidin C] | > 20000 | 25.9 ± 10.2 | – | – | IC50 [3, 5]: 236 nM
C=C1Cc2ccc3[nH]c4c(c3c2[C@H]2[C@@H]1C[C@@H]2C(C)(C)O)C[C@@H]1CC[C@@]2(O)C3=C[C@@H](O)[C@@H](C(=C)C)O[C@H]3CC[C@]2(C)[C@@]41C [compound 120253, Secopenitrem D] | – | – | > 20000 | 14100 | –
COC(=O)[C@@]12Oc3ccc(-c4ccc5c(c4O)C(O)C4=C(O)C[C@H](C)[C@@H](O)[C@]4(C(=O)OC)O5)c(O)c3C(=O)C1=C(O)C[C@H](C)[C@H]2O (stereo partly shown) [compound 130002, Secalonic acid D] | 3730 | 334 ± 103 | – | – | IC50 [3, 5]: 1300 nM
CC(O)[C@@]12SS[C@]3(C(=O)N1C)[C@@H](O)C1([C@@]45c6ccccc6N[C@@H]4N4C(=O)[C@]6(C(C)O)SS[C@]4(C(=O)N6C)[C@H]5O)c4ccccc4N[C@@H]1N3C2=O (stereo partly shown) [compound 130016, Verticillin D] | – | – | 943.2 ± 6.4 | 36.2 ± 1.8 | –
C=C[C@H]1C[C@@H](C)C[C@@H](C)[C@@H]1c1c(O)ccn(O)c1=O [compound 130034, Pyridoxatin] | – | – | > 20000 | > 8560 | –
COC(=O)C12Oc3c(c(O)cc4c3C3C=CC5(C4)C(=O)c4cc(C)cc(O)c4C(O)=C5C3=O)C(O)=C1C(=O)CCC2O (stereo not shown) [compound 130143, Xanthoquinodin B2] | > 20000 | 131 ± 36.5 | – | – | IC50 [3, 5]: 1010 nM
COC(=O)[C@@]12Oc3cc4c(c(O)c3C(=O)C1=C(O)CC[C@@H]2O)[C@@H]1C=C[C@@]2(C4)C(=O)c3cc(C)cc(O)c3C(O)=C2C1=O [compound 130144, Xanthoquinodin A1] | 12900 | 112 ± 74 | – | – | IC50 [4]: 12900 ± 1900 nM; IC50 [3, 5]: 250 nM
COC(=O)[C@]12Oc3cc4c(c(O)c3C(=O)C1=C(O)CC[C@@H]2O)[C@@H]1C=C[C@@]2(C4)C(=O)c3cc(C)cc(O)c3C(O)=C2C1=O [compound 130147, Xanthoquinodin A2] | 12300 | 56.4 ± 12.8 | – | – | IC50 [4]: 12300 ± 300 nM; IC50 [3, 5]: 680 nM
CC[C@](C)(NC(=O)[C@H](CC(C)C)NC(=O)[C@H](C)NC(=O)C(C)(C)NC(=O)[C@@H]1CCCCN1C(=O)C(C)(C)NC(=O)C(C)(C)NC(=O)CNC(=O)CCNC(=O)[C@H](CC(C)C)NC(=O)C(C)(C)NC(=O)C(C)(C)NC(=O)[C@@H]1CCCCN1C(=O)C(C)(C)NC(=O)[C@@H]1CCCCN1C(C)=O)C(=O)N[C@@H](CC(C)C)CN1CCC[N+]2=C1CCC2 [compound 150003, Efrapeptin F] (Ac-[Pip][Aib][Pip][Aib][Aib]L[βAla]G[Aib][Aib][Pip][Aib]AL[Iva]-X1; N-terminus and C-terminus assumed) | – | – | > 20000 | 55.5 ± 11.8 | IC50 ([3]; ref Lee et al. ([8])): 399 nM
CC[C@](C)(NC(=O)[C@H](CC(C)C)NC(=O)[C@H](C)NC(=O)C(C)(C)NC(=O)[C@@H]1CCCCN1C(=O)C(C)(C)NC(=O)C(C)(C)NC(=O)CNC(=O)CCNC(=O)[C@H](CC(C)C)NC(=O)C(C)(C)NC(=O)C(C)(C)NC(=O)[C@@H]1CCCCN1C(=O)C(C)(C)NC(=O)[C@@H]1CCCCN1C(C)=O)C(=O)N[C@@H](CC(C)C)C[N+]1=C2CCCN2CCC1 [compound 150003, Efrapeptin F] (Ac-[Pip][Aib][Pip][Aib][Aib]L[βAla]G[Aib][Aib][Pip][Aib]AL[Iva]-X2) | – | – | – | – | toxicity to HFFs [1]: no toxicity
CC[C@](C)(NC(=O)[C@H](CC(C)C)NC(=O)[C@H](C)NC(=O)C(C)(C)NC(=O)[C@@H]1CCCCN1C(=O)C(C)(C)NC(=O)C(C)(C)NC(=O)CNC(=O)CCNC(=O)[C@H](CC(C)C)NC(=O)C(C)(C)NC(=O)[C@](C)(CC)NC(=O)[C@@H]1CCCCN1C(=O)C(C)(C)NC(=O)[C@@H]1CCCCN1C(C)=O)C(=O)N[C@@H](CC(C)C)CN1CCC[N+]2=C1CCC2 [compound 150004, Efrapeptin G] (Ac-[Pip][Aib][Pip][Iva][Aib]L[βAla]G[Aib][Aib][Pip][Aib]AL[Iva]-X1; N-terminus and C-terminus assumed) | – | – | > 20000 | 12.3 ± 2.3 | IC50 ([3]; ref Lee et al. ([8])): 460 nM
CC[C@](C)(NC(=O)[C@H](CC(C)C)NC(=O)[C@H](C)NC(=O)C(C)(C)NC(=O)[C@@H]1CCCCN1C(=O)C(C)(C)NC(=O)C(C)(C)NC(=O)CNC(=O)CCNC(=O)[C@H](CC(C)C)NC(=O)C(C)(C)NC(=O)[C@](C)(CC)NC(=O)[C@@H]1CCCCN1C(=O)C(C)(C)NC(=O)[C@@H]1CCCCN1C(C)=O)C(=O)N[C@@H](CC(C)C)C[N+]1=C2CCCN2CCC1 [compound 150004, Efrapeptin G] (Ac-[Pip][Aib][Pip][Iva][Aib]L[βAla]G[Aib][Aib][Pip][Aib]AL[Iva]-X2) | – | – | – | – | toxicity to HFFs [1]: no toxicity
CCCCC[C@@H](O)C[C@@H](O)C[C@@H]1Cc2cc3cc(OC)c(-c4c(OC)cc5cc6c(c(O)c5c4O)C(=O)O[C@H](C[C@H](O)C[C@H](O)CCCCC)C6)c(O)c3c(O)c2C(=O)O1 [compound 150020, Dinapinone A] | – | – | 6670 | 3170 | –
COC(=O)C1=CC(O)C(O)C(O)C1N1CC(O)C(OC(C)=O)C1Cc1ccc(OC)cc1 (stereo not shown) [compound 150029] | 28500 | 585 ± 14.6 | – | – | IC50 at 48 h ([4]; confluent human foreskin fibroblast (HFF) cells): 28500 ± 2400 nM
COC(=O)c1c(Sc2c(O)cc(OC)c(C(=O)c3c(O)cc(C)cc3O)c2C(=O)OC)c(O)cc(OC)c1C(=O)c1c(O)cc(C)cc1O [compound 150052, Polluxochrin] | > 60000 | 801 ± 163 | – | – | –
C[C@H]1CCC/C=C/[C@@H]2C[C@H](O)C[C@H]2[C@H](O)/C=C/C(=O)O1 [compound 160010, Brefeldin A] | 6430 | 243 ± 78.4 | – | – | –
CN1C(=O)[C@]2(Cc3cn([C@]45C[C@@]67SS[C@@](CO)(C(=O)N6[C@H]4Nc4ccccc45)N(C)C7=O)c4ccccc34)SS[C@@]1(CO)C(=O)N2C [compound 170066, Chetomin] | 369 ± 72.6 | 62.2 ± 3.75 | – | – | –
COc1c(C[C@@H](C)OC(=O)Oc2ccc(O)cc2)c2c3c(C[C@@H](C)OC(=O)c4ccccc4)c(OC)c(=O)c4c(O)cc(OC)c(c5c(OC)cc(O)c(c1=O)c52)c43 [compound 170068, Calphostin C] | > 20000 | 1140 | – | – | IC50 [3, 5]: 410 nM
CC1=C[C@@H]2/C=C(\C)CC[C@H](O)[C@H](O)/C=C/C(=O)[C@]23C(=O)N[C@@H](CC(C)C)[C@@H]3[C@@H]1C [compound 170081, Aspochalasin D] | 30300 | 1270 | – | – | –
Alpha-cyclopiazonic acid [compound 170027] | – | – | > 40000 | 1130 | –
PF-1140 [compound 120159] | – | – | > 20000 | 3290 | –
Verticillin [compound 130038] | – | – | 82.4 ± 41.8 | 79 ± 29.3 | IC50 [3, 5]: 501 nM
